Test results: publication PMC6270994, “The Hydractinia echinata Test-System. III: Structure-Toxicity Relationship Study of Some Azo-, Azo-Anilide, and Diazonium Salt Derivatives” (Molecules, 2014)

tested on: Hydractinia echinata; assay: Hydractinia echinata test system (HeTS): reduction of Cs+-induced metamorphosis of larvae; assay type: in vivo; settings: Hydractinia echinata; MRC50 in mol/L = concentration for 50% decrease of metamorphosis vs control; larvae exposed 3 h with Cs+, read after 24 h; read-out: M: experimental Mlog(1/MRC50) (converted)
Method: The average (C) concentrations of these values were calculated too. The MRC50 value calculations (Chicu et al.) result from the graphical representation of the metamorphosis variation, M (%), (Y axis) function of the xenobiotic’s concentration (mol/L) (X axis), where the metamorphosis decreases with the rise of the xenobiotic’s concentration. Thus, the MRC50 value represents the xenobiotic’s concentration (mol/L) necessary for a 50% decrease of metamorphosis, with respect to control.
For each concentration of substance experiments were performed in triplicate and were repeated at least twice.
Colonies of H. echinata (Biologische Anstalt, Helgoland, Germany) were used to obtain eggs and larvae. The culture medium was artificial seawater (980 mosmol, pH 8.2, 18 °C). In laboratory an artificial metamorphosis can be synchronically started by the introduction of Cs^+ ions or by using seawater without Mg^2+ ions; it then lasts only 24 h. Under the action of external stimulus of Cs^+ ions or Cs^+ ions together with the tested compounds, one part of larvae further lives as such and another one is metamorphosized to the polyp form. The evaluation of the influence of the tested substance is very clear this way, the proposed method being based on this aspect.
H. echinata larvae were exposed to seawater containing Cs^+ and simultaneously one of the test substances for 3 h. The percentage of animals that underwent metamorphosis (development into polyps) was determined after 24 h. […] We chose a concentration of inducers which caused about […] to three quarters of the larvae to metamorphose in order to have conditions which are highly sensitive against an inhibitory influence. […] This concentration was termed MRC50 (for Metamorphosis Reduction Concentration) and is similar to the effective EC50 concentration that gives half maximal effective response.

SMILES | EC50
O=S(=O)(O)c1cc(S(=O)(=O)O)c2c(/N=N/c3ccccc3)c(O)ccc2c1 [Compound 39, Acid Orange 10 (Orange G)] | 457 µM
Nc1c(/N=N/c2ccc(-c3ccc(/N=N/c4cc(S(=O)(=O)O)c5ccccc5c4N)cc3)cc2)cc(S(=O)(=O)O)c2ccccc12 [Compound 82, Congo Red] | 32.4 µM
Cc1cc(-c2ccc(/N=N/c3ccc4c(S(=O)(=O)O)cc(S(=O)(=O)O)c(N)c4c3O)c(C)c2)ccc1/N=N/c1ccc2c(S(=O)(=O)O)cc(S(=O)(=O)O)c(N)c2c1O [Compound 89, Direct Blue 53 (Evans Blue)] | 7.41 µM
Cc1cc(-c2ccc(/N=N/c3c(S(=O)(=O)O)cc4cc(S(=O)(=O)O)cc(N)c4c3O)c(C)c2)ccc1/N=N/c1c(S(=O)(=O)O)cc2cc(S(=O)(=O)O)cc(N)c2c1O [Compound 90, Trypanblue (Direct Blue 14)] | 81.3 µM
COc1cc(-c2ccc(-n3nc(-c4ccccc4)n[n+]3-c3ccccc3)c(OC)c2)ccc1-n1nc(-c2ccccc2)n[n+]1-c1ccccc1 [Compound 95, Tetrazolium Blue Chloride] | 91.2 µM
O=S(=O)(O)c1cc(/N=N/c2ccc(O)cc2O)ccc1/C=C/c1ccc(/N=N/c2ccc(O)cc2O)cc1S(=O)(=O)O [Compound 97, 5-[(E)-2-(2,4-Dihydroxyphenyl)-diazen-1-yl]-2-[(E)-2-{4-[(E)-2-(2,4-dihydroxyphenyl)-diazen-1-yl]-2-sulfophenyl}ethenyl]-benzene-1-sulfonic acid] | 186 µM
O=C(O)c1cc(N=Nc2ccc(C=Cc3ccc(N=Nc4ccc(O)cc4C(=O)O)cc3S(=O)(=O)O)c(S(=O)(=O)O)c2)ccc1O [Compound 98, 2-{2-[4-(2-{4-[2-(3-Carboxy-4-hydroxy-phenyl)diazen-1-yl]-2-sulfophenyl}ethenyl)-3-sulfophenyl]diazen-1-yl}-5-hydroxybenzoic acid] | 407 µM
O=S(=O)(O)c1cc(N=Nc2c(O)ccc3ccccc23)ccc1C=Cc1ccc(N=Nc2c(O)ccc3ccccc23)cc1S(=O)(=O)O [Compound 100, 5-[2-(2-Hydroxy-naphthalen-1-yl)diazen-1-yl]-2-(2-{4-[2-(2-hydroxynaphthalen-1-yl)diazen-1-yl]-2-sulfophenyl}ethenyl)-benzene-1-sulfonic acid] | 28.2 µM
O=C(O)c1cc2ccccc2c(N=Nc2ccc(C=Cc3ccc(N=Nc4c(O)c(C(=O)O)cc5ccccc45)cc3S(=O)(=O)O)c(S(=O)(=O)O)c2)c1O [Compound 101, 4-{2-[4-(2-{4-[2-(3-Carboxy-2-hydroxy-naphthalen-1-yl)diazen-1-yl]-2-sulfophenyl}-ethenyl)-3-sulfo-phenyl]diazen-1-yl}-3-hydroxynaphthalene-2-carboxylic acid] | 135 µM
Nc1c(N=Nc2ccc(C=Cc3ccc(N=Nc4cc(S(=O)(=O)O)c5ccccc5c4N)cc3S(=O)(=O)O)c(S(=O)(=O)O)c2)cc(S(=O)(=O)O)c2ccccc12 [Compound 102, 4-Amino-3-{2-[4-(2-{4-[2-(1-amino-4-sulfonaphthalen-2-yl)diazen-1-yl]-2-sulfophenyl}ethenyl)-3-sulfophenyl]diazen-1-yl}naphthalene-1-sulfonic acid] | 182 µM

same assay, conditions: Hydractinia echinata; parent dye, Table 2; read-out: F(1+2+...)e experimental toxicity log(1/MRC50) (converted)

SMILES | EC50
O=S(=O)(O)c1cc(/N=N/c2ccc(O)cc2O)ccc1/C=C/c1ccc(/N=N/c2ccc(O)cc2O)cc1S(=O)(=O)O [Compound 97, 5-[(E)-2-(2,4-Dihydroxyphenyl)-diazen-1-yl]-2-[(E)-2-{4-[(E)-2-(2,4-dihydroxyphenyl)-diazen-1-yl]-2-sulfophenyl}ethenyl]-benzene-1-sulfonic acid] | 186 µM

same assay, conditions: MRC50 in mol/L = concentration for 50% decrease of metamorphosis vs control; larvae exposed 3 h with Cs+, read after 24 h

SMILES | M: experimental Mlog(1/MRC50)
O=S(=O)([O-])c1ccc2c(N=Nc3ccccc3[As](=O)(O)O)c(O)c(S(=O)(=O)[O-])cc2c1.[Na+].[Na+] [Compound 40, Thorin] | 3.46
O=S(=O)([O-])c1cc(O)c2c(O)c(N=Nc3ccccc3)c(S(=O)(=O)[O-])cc2c1.[Na+].[Na+] [Compound 41, Acid Red 29 (Chromotrope 2R)] | 3.65
CC(=O)Nc1cc(S(=O)(=O)[O-])cc2cc(S(=O)(=O)[O-])c(N=Nc3ccccc3)c(O)c12.[Na+].[Na+] [Compound 42, Acid Red 1 (Azophloxin)] | 3.66
CC(=O)Nc1cc(S(=O)(=O)[O-])cc2cc(S(=O)(=O)[O-])c(N=Nc3ccccc3C)c(O)c12.[Na+].[Na+] [Compound 43, Acid Red 35] | 3.63
O=S(=O)([O-])c1ccc(N=Nc2c(O)ccc3ccccc23)c2ccccc12.[Na+] [Compound 56, Acid Red 88 (Fast Red AV)] | 3.31
O=S(=O)([O-])c1ccc2c(N=Nc3ccc(S(=O)(=O)[O-])c4ccccc34)c(O)c(S(=O)(=O)[O-])cc2c1.[Na+].[Na+].[Na+] [Compound 57, Acid Red 27 (Amaranth, Food Red 9)] | 2.33
O=[N+]([O-])c1ccc2c(N=Nc3ccc4ccccc4c3O)c(O)cc(S(=O)(=O)[O-])c2c1.[Na+] [Compound 58, Eriochrom Black T] | 4.13
Cl.Cl.Nc1ccc(N=Nc2cccc(N=Nc3ccc(N)cc3N)c2)c(N)c1 [Compound 60, Bismark Brown Y (Vesuvin)] | 3.87
Cc1ccccc1/N=N/c1ccc(/N=N/c2c(O)ccc3ccccc23)c(C)c1 [Compound 63, Sudan IV (Scarlet Red)] | 3.05
Cc1cccc(N=Nc2ccc(N=Nc3c(O)ccc4ccccc34)cc2C)c1 [Compound 64, Solvent Red 25 (Sudan Red B)] | 3.42
Oc1ccc2ccccc2c1N=Nc1ccc(N=Nc2ccccc2)cc1 [Compound 65, Solvent Red 23 (Sudan III, Sudan V)] | 3.64
O=S(=O)([O-])c1ccc(N=Nc2ccc(N=Nc3c(O)ccc4ccccc34)c(S(=O)(=O)[O-])c2)cc1.[Na+].[Na+] [Compound 68, Acid Red 66 (Biebrischer Scharlach)] | 3.95
O=S(=O)([O-])c1ccc(N=Nc2ccc(N=Nc3c(O)c(S(=O)(=O)[O-])cc4cc(S(=O)(=O)[O-])ccc34)c(S(=O)(=O)[O-])c2)cc1.[Na+].[Na+].[Na+].[Na+] [Compound 69, Ponceau S] | 3.97
Nc1c(N=Nc2ccc([N+](=O)[O-])cc2)c(S(=O)(=O)[O-])cc2cc(S(=O)(=O)[O-])c(N=Nc3ccccc3)c(O)c12.[Na+].[Na+] [Compound 74, Acid Black 1 (Amido Black 10B)] | 4.33
Nc1c(N=Nc2ccc([N+](=O)[O-])cc2)c(S(=O)(=O)[O-])cc2cc(S(=O)(=O)[O-])c(N=Nc3ccccc3)c(O)c12.[Na+].[Na+] [Compound 75, Acid Black 1 (Salt)] | 4.41
CC1(C)Nc2cccc3c(N=Nc4ccc(N=Nc5ccccc5)c5ccccc45)ccc(c23)N1 [Compound 80, Sudan Black B (Solvent Black 3)] | 4.20
Nc1ccc(N=Nc2ccc(-c3ccc(N=Nc4c(S(=O)(=O)[O-])cc5cc(S(=O)(=O)[O-])c(N=Nc6ccccc6)c(O)c5c4N)cc3)cc2)c(N)c1.[Na+].[Na+] [Compound 83, Direct Black 38] | 4.26
O=S(=O)([O-])c1cc(N=Nc2c(O)ccc3ccccc23)ccc1-c1ccc(N=Nc2c(O)ccc3ccccc23)cc1S(=O)(=O)[O-].[Na+].[Na+] [Compound 87, Acid Red 97] | 4.11
COc1cc(-c2ccc(N=Nc3c(S(=O)(=O)[O-])cc4cc(S(=O)(=O)[O-])cc(N)c4c3O)c(OC)c2)ccc1N=Nc1c(S(=O)(=O)[O-])cc2cc(S(=O)(=O)[O-])cc(N)c2c1O.[Na+].[Na+].[Na+].[Na+] [Compound 91, Direct Blue 15 (Aizen Direct Sky Blue 5B)] | 3.69
COc1cc(-c2ccc(N=Nc3ccc4c(S(=O)(=O)[O-])cc(S(=O)(=O)[O-])c(N)c4c3O)c(OC)c2)ccc1N=Nc1ccc2c(S(=O)(=O)[O-])cc(S(=O)(=O)[O-])c(N)c2c1O.[Na+].[Na+].[Na+].[Na+] [Compound 92, Direct Blue 1] | 3.79
COc1cc(-c2ccc([N+]#N)c(OC)c2)ccc1[N+]#N [Compound 94, Fast Blue B] | 4.30
O=S(=O)([O-])c1cc(N=Nc2ccc(O)cc2)ccc1/C=C/c1ccc(N=Nc2ccc(O)cc2)cc1S(=O)(=O)[O-].[Na+].[Na+] [Compound 96, Brilliant Yellow] | 3.84
O=S(=O)([O-])c1cc(Nc2nc(Nc3ccccc3)nc(N(CCO)CCO)n2)ccc1/C=C/c1ccc(Nc2nc(Nc3ccccc3)nc(N(CCO)CCO)n2)cc1S(=O)(=O)[O-].[Na+].[Na+] [Compound 103, Fluorescent Brightener 28] | 3.81

same assay, conditions: even at a concentration of 0.11 mol/L

SMILES | toxicity
O=C([O-])C1=NN(c2ccc(S(=O)(=O)[O-])cc2)C(=O)C1N=Nc1ccc(S(=O)(=O)[O-])cc1.[Na+].[Na+].[Na+] (stereo not shown) [Compound 55, Acid Yellow 23 (Tartrazine, Food Yellow 4)] | not toxic at all

same assay, conditions: parent dye, Table 2

SMILES | F(1+2+...)e experimental toxicity log(1/MRC50)
O=S(=O)([O-])c1cc(N=Nc2ccc(O)cc2)ccc1/C=C/c1ccc(N=Nc2ccc(O)cc2)cc1S(=O)(=O)[O-].[Na+].[Na+] [Compound 96, Brilliant Yellow] | 3.84

same assay, conditions: same column as M

SMILES | M: experimental toxicity (class word)
O=C([O-])C1=NN(c2ccc(S(=O)(=O)[O-])cc2)C(=O)C1N=Nc1ccc(S(=O)(=O)[O-])cc1.[Na+].[Na+].[Na+] (stereo not shown) [Compound 55, Acid Yellow 23 (Tartrazine, Food Yellow 4)] | NOTE
